Data taken from patent US6727245B2, “Heterobicyclic derivatives” (Fujisawa Pharmaceutical Co., Ltd., priority 1994, dated 2004).

melting point	Compound
227 to 232 °C	O=C(Nc1cccc(-n2c(=O)c(Cc3cccnc3)nc3cccnc32)c1)Oc1ccccc1
143 to 153 °C (dec.)	COc1ccccc1NC(=O)Nc1cccc(-n2c(=O)c(CCC(=O)O)nc3cccnc32)c1 [Example 16(12), 2-(2-Carboxyethyl)-3-oxo-4-[3-[3-(2-methoxyphenyl)-ureido]phenyl]-3,4-dihydropyrido[2,3-b]pyrazine]
220 to 221 °C	COc1ccccc1NC(=O)Nc1cccc(-n2c(=O)c(Cc3ccc(O)cc3)nc3cccnc32)c1 [Example 16(13), 2-(4-Hydroxyphenylmethyl)-3-oxo-4-[3-[3-(2-methoxyphenyl)ureido]phenyl]-3,4-dihydropyrido-[2,3-b]pyrazine]
200 to 208 °C (dec.)	COc1ccccc1NC(=O)Nc1cccc(-n2c(=O)c(Cc3ccccc3[N+](=O)[O-])nc3cccnc32)c1 [Example 16(14), 2-(2-Nitrophenylmethyl)-3-oxo-4-[3-[3-(2-methoxyphenyl)ureido]phenyl]-3,4-dihydropyrido[2,3-b]pyrazine]
264 to 269 °C (dec.)	CC(=O)Nc1cccc(-n2c(=O)c(CCC(=O)O)nc3cccnc32)c1 [Example 16(15), 4-(3-Acetamidophenyl)-2-(2-carboxyethyl)-3-oxo-3,4-dihydropyrido[2,3-b]pyrazine]
212 to 214 °C	CCOc1ccc2nc(Cc3ccccc3)c(=O)n(-c3cccc(NC(C)=O)c3)c2n1 [Example 16(16), 4-(3-Acetamidophenyl)-2-benzyl-6-ethoxy-3-oxo-3,4-dihydropyrido[2,3-b]pyrazine]
235 to 237 °C	COc1ccccc1NC(=O)Nc1cccc(-n2c(=O)c(CCC(=O)ON3C(=O)CCC3=O)nc3cccnc32)c1 [Example 23, 4-[3-[3-(2-methoxyphenyl)ureido]-phenyl]-3-oxo-2-[2-succinimidooxycarbonylethyl)-3,4-dihydropyrido[2,3-b]pyrazine]
242 to 245 °C	COc1ccccc1NC(=O)Nc1cccc(-n2c(=O)c(CCC(=O)N(C)C)nc3cccnc32)c1 [Example 24, 2-[2-(N,N-dimethylcarbamoyl)ethyl]-3-oxo-4-[3-[3-(2-methoxyphenyl)-ureido]phenyl]-3,4-dihydropyrido[2,3-b]pyrazine]
175 °C	CCOC(=O)CCc1nc2cccnc2n(-c2cccc(NC(=O)Nc3ccccc3OC)c2)c1=O [Example 33, 2-(2-ethoxycarbonylethyl)-3-oxo-4-[3-[3-(2-methoxyphenyl)-ureido]phenyl]-3,4-dihydropyrido[2,3-b]pyrazine]
161 to 163 °C	CCCOC(=O)CCc1nc2cccnc2n(-c2cccc(NC(=O)Nc3ccccc3OC)c2)c1=O [Example 34(1), 4-[3-[3-(2-Methoxyphenyl)ureido]phenyl]-3-oxo-2-(2-propyloxycarbonylethyl)-3,4-dihydropyrido[2,3-b]-pyrazine]
194 to 196 °C	COC(=O)CCc1nc2cccnc2n(-c2cccc(NC(=O)Nc3ccccc3OC)c2)c1=O [Example 34(2), 2-(2-Methoxycarbonylethyl)-3-oxo-4-[3-[3-(2-methoxyphenyl)ureido]phenyl]-3,4-dihydropyrido-[2,3-b]pyrazine]
195 to 197 °C	COc1ccccc1NC(=O)Nc1cccc(-n2c(=O)c(CCC(=O)N3CCN(C)CC3)nc3cccnc32)c1 [Example 35, 4-[3-[3-(2-methoxyphenyl)ureido]phenyl]-2-[2-(4-methylpiperazin-1-yl)carbonylethyl]-3-oxo-3,4-dihydropyrido[2,3-b]pyrazine]
209 to 212 °C	COC(=O)[C@@H]1CCCN1C(=O)CCc1nc2cccnc2n(-c2cccc(NC(=O)Nc3ccccc3OC)c2)c1=O [Example 36, 4-[3-[3-(2-Methoxyphenyl)ureido]phenyl]-3-oxo-2-[2[(2S)-2-methoxycarbonylpyrrolidin-1-yl]carbonylethyl]-3,4-dihydropyrido[2,3-b]pyrazine]
264 to 268 °C	O=C(Nc1ccc(F)c(-n2c(=O)c(Cc3cccnc3)nc3cccnc32)c1)c1ccc2ccccc2c1 [Example 41(20), 4-[2-Fluoro-5-(2-naphthoylamino)phenyl]-2-(3-pyridylmethyl)-3-oxo-3,4-dihydropyrido[2,3-b]pyrazine]
155 to 156 °C	O=c1c(Cc2cccnc2)nc2cccnc2n1-c1cccc(-c2ccc3ccccc3c2)c1 [Example 43, 4-[3-(2-naphthyl)phenyl]-2-(3-pyridylmethyl)-3-oxo-3,4-dihydropyrido[2,3-b]pyrazine]
238 to 239 °C	COc1ccccc1NC(=O)Nc1cccc(-n2c(=O)c(Cc3ccccc3)nc3cccnc32)c1 [Example 45(6), 2-Benzyl-4-[3-[3-(2-methoxyphenyl)ureido]phenyl]-3-oxo-3,4-dihydropyrido[2,3-b]pyrazine]
165 to 166 °C	N#Cc1cccn1-c1cccc(-n2c(=O)c(Cc3ccccc3)nc3cccnc32)c1 [Example 45(7), 2-Benzyl-4-[3-(2-cyanopyrrol-1-yl)phenyl]-3-oxo-3,4-dihydropyrido[2,3-b]pyrazine]
197 to 198 °C	O=c1c(Cc2ccccc2)nc2cccnc2n1-c1cccc(-c2nc3ccccc3s2)c1 [Example 45(8), 2-Benzyl-4-[3-(benzothiazol-2-yl)phenyl]-3-oxo-3,4-dihydropyrido[2,3-b]pyrazine]

melting point	Compound
154 to 155 °C	O=C(c1ccccc1)c1cccc(-n2c(=O)c(Cc3ccccc3)nc3cccnc32)c1 [Example 45(9), 2-Benzyl-4-(3-benzoylphenyl)-3-oxo-3,4-dihydropyrido[2,3-b]pyrazine]
125 to 127 °C	O=c1c(Cc2ccccc2)nc2cccnc2n1-c1cccc(C(F)(F)F)c1 [Example 45(10), 2-Benzyl-4-(3-trifluoromethylphenyl)-3-oxo-3,4-dihydropyrido[2,3-b]pyrazine]
157 to 159 °C	CC(=O)c1cn(-c2cccc(-n3c(=O)c(Cc4ccccc4)nc4cccnc43)c2)c2ccccc12 [Example 45(11), 2-Benzyl-4-[3-(3-acetylindol-1-yl)phenyl]-3-oxo-3,4-dihydropyrido[2,3-b]pyrazine]
208 to 210 °C	COC(=O)c1cccc(-n2c(=O)c(Cc3cccnc3)nc3cccnc32)c1 [Example 45(12), 4-(3-Methoxycarbonylphenyl)-2-(3-pyridylmethyl)-3-oxo-3,4-dihydropyrido[2,3-b]pyrazine]
128 to 130 °C	O=c1c(Cc2cccnc2)nc2cccnc2n1-c1cccc(-n2cccc2)c1 [Example 45(13), 4-[3-(1-Pyrrolyl)phenyl]-2-(3-pyridylmethyl)-3-oxo-3,4-dihydropyrido[2,3-b]pyrazine]
88 to 90 °C	O=c1c(Cc2cccnc2)nc2cccnc2n1-c1cccc(C(F)(F)F)c1 [Example 45(14), 4-(3-Trifluoromethylphenyl)-2-(3-pyridylmethyl)-3-oxo-3,4-dihydropyrido[2,3-b]pyrazine]
212 to 214 °C	CC(=O)Nc1ccc(F)c(-n2c(=O)c(Cc3cccnc3)nc3cccnc32)c1 [Example 45(15), 4-(5-Acetamido-2-fluorophenyl)-2-(3-pyridylmethyl)-3-oxo-3,4-dihydropyrido[2,3-b]pyrazine]
142 to 143 °C	O=C(c1ccccc1)c1cccc(-n2c(=O)c(Cc3cccnc3)nc3cccnc32)c1 [Example 45(16), 4-(3-Benzoylphenyl)-2-(3-pyridylmethyl)-3-oxo-3,4-dihydropyrido[2,3-b]pyrazine]
153 to 156 °C	CC(=O)c1cn(-c2cccc(-n3c(=O)c(Cc4cccnc4)nc4cccnc43)c2)c2ccccc12 [Example 45(17), 4-[3-(3-Acetylindol-1-yl)phenyl]-2-(3-pyridylmethyl)--3-oxo-3,4-dihydropyrido[2,3-b]pyrazine]
166 to 168 °C	O=c1c(Cc2cccnc2)nc2cccnc2n1-c1cccc(-n2ccc3ccccc32)c1 [Example 45(18), 4-[3-(1-Indolyl)phenyl]-2-(3-pyridylmethyl)-3-oxo-3,4-dihydropyrido[2,3-b]pyrazine]
162 to 165 °C	O=c1c(Cc2cccnc2)nc2cccnc2n1-c1cccc(-c2cccc3ccccc23)c1 [Example 45(19), 4-[3-(1-Naphthyl)phenyl]-2-(3-pyridylmethyl)-3-oxo-3,4-dihydropyrido[2,3-b]pyrazine]
168 to 170 °C	Nc1cccc(-n2c(=O)c(Cc3cccnc3)nc3cccnc32)c1 [Example 46, 4-(3-aminophenyl)-2-(3-pyridylmethyl)-3-oxo-3,4-dihydropyrido[2,3-b]pyrazine]
177 to 179 °C	Nc1ccc(F)c(-n2c(=O)c(Cc3cccnc3)nc3cccnc32)c1 [Example 47, 4-(5-Amino-2-fluorophenyl)-2-(3-pyridylmethyl)-3-oxo-3,4-dihydropyrido[2,3-b]pyrazine]
146 to 149 °C	O=C(Nc1ccc(F)c(-n2c(=O)c(Cc3cccnc3)nc3cccnc32)c1)Nc1ccccc1F [Example 50(1), 4-[2-Fluoro-5-[3-(2-fluorophenyl)ureido]phenyl]-2-(3-pyridylmethyl)-3-oxo-3,4-dihydropyrido[2,3-b]pyrazine]
152 to 155 °C	COc1ccccc1NC(=O)Nc1ccc(F)c(-n2c(=O)c(Cc3cccnc3)nc3cccnc32)c1 [Example 50(2), 4-[2-Fluoro-5-[3-(2-methoxyphenyl)ureido]phenyl]-2-(3-pyridylmethyl)-3-oxo-3,4-dihydropyrido[2,3-b]pyrazine]
188 to 189 °C	O=C(Nc1cccc(-n2c(=O)c(Cc3cccnc3)nc3cccnc32)c1)Nc1ccccc1[N+](=O)[O-] [Example 50(3), 4-[3-[3-(2-Nitrophenyl)ureido]phenyl]-2-(3-pyridylmethyl)-3-oxo-3,4-dihydropyrido[2,3-b]pyrazine]
163 to 169 °C	COc1ccccc1NC(=O)Nc1cccc(-n2c(=O)c(Cc3cccnc3)nc3cccnc32)c1 [Example 50(4), 4-[3-[3-(2-Methoxyphenyl)ureido]phenyl]-2-(3-pyridylmethyl)-3-oxo-3,4-dihydropyrido[2,3-b]pyrazine]
228 to 231 °C	COc1ccc2cc(-c3cccc(-n4c(=O)c(Cc5cccnc5)nc5cccnc54)c3)ccc2c1 [Example 54(24), 4-[3-(6-Methoxy-2-naphthyl)phenyl]-2-(3-pyridylmethyl)-3-oxo-3,4-dihydropyrido[2,3-b]pyrazine]
